Earlier results on 2 compounds are cited in patent US20020150627A1, “Composition containing creatine and phosphorus” (priority 2001, published 2002).

The structures appear in SMILES notation. Where two headings read alike, the source gives them in different places.

Data set [1] concerns subjects. As to conditions: for Increase power output compared to placebo according to Wallace et al: four times daily for 5 days.
Data set [2] has as its system skeletal muscle. As to conditions: 4×5 gram creatine per day for five to six days.
[3] abbreviates: 1000 mg four times daily for 5 days.

For the compound `O=P([O-])([O-])[O-].[Na+].[Na+].[Na+]` [Phosphate, tribasic sodium phosphate], in data set [1] (setting [3]), the VO2 max elevated is listed as 8% and the “Ventilatory anaerobic threshold elevated” value is listed as 10%. Also, the “Increase power output compared to placebo according to Wallace et al” value (shortened to “Increase power output”) in data set [1] was 3%. Moreover, the “Increase power output” value in data set [1] (listed as phosphate) is reported as 3%.
Consider `CN(CC(=O)O)C(=N)N.O` [creatine monohydrate], for which the “Increase power output” value in data set [1] (listed as Creatine, monohydrate) is reported as 3%. Also, the “Increase power output” value in data set [1] (listed as creatine, monohydrate) is listed as 3%. Further, in data set [2], the “Increase of skeletal muscle creatine content (average)” value is 20% and the “Phosphocreatine share of the increase in skeletal muscle creatine content” value is given as 20%.
